What all share (assay): inhibition of tumour cell growth, NCI panel, 48 h
In assay [1] the test system is ACHN renal.
Assay [2] has as its system HOP-62 NSCLC.
Assay [3] relates to K-562 leukemia.
Assay [4] deals with KM12 colon.
In assay [5] the test system is MALME-3M melanoma.
Assay [6] relates to OVCAR-4 ovarian.
For assay [7], the system named is OVCAR-5 ovarian.
For assay [8], the system named is RPMI-8226 leukemia.
Assay [9] deals with UACC-62 melanoma.
The test system of assay [10] is LOX IMVI melanoma.

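Results reflect a 48-hour exposure of cells in 96-well plates to compound at five concentrations. The concentration for 50% growth inhibition is given as GI50. TGI is the concentration that stops growth completely.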 Some results are limits rather than exact numbers.

Data on 13 compounds can be found in PubChem BioAssay (NCI).

As for `Clc1ccccc1-c1nc(-c2ccncc2)no1`, the TGI in [1], in assay [2], in assay [3], in assay [4], in assay [5] and in assay [6] was above 100 µM throughout. For the same compound, the TGI in [7], in assay [8] and in [9] was above 100 µM each time.
In the case of `Cc1cc(S(N)(=O)=O)c(S/C(=N\Nc2ccc([N+](=O)[O-])cc2)c2ccc(O)cc2)cc1Cl`, the GI50 is 3.09 µM in assay [1]; 5.02 µM in [2]; 2.7 µM in assay [3]; 1.96 µM in [4]; 1.73 µM in [5]; 3.43 µM in assay [6]. For the same compound, the GI50 in assay [7] is 2.09 µM; in assay [8] it was 1.66 µM; in assay [9] it was 1.79 µM. In addition, the TGI in assay [1] was 12.9 µM; in assay [2], 16.8 µM; in assay [3] it was above 100 µM; in [4], 4.14 µM; in [5], 4.37 µM; in [6], 7.94 µM. Moreover, the TGI was 4.71 µM in [7], 4.3 µM in assay [8] and 3.84 µM in assay [9].
For `COc1cc(-c2cc(-c3nc4cc(Cl)c(Cl)cc4[nH]3)[nH]n2)cc(OC)c1OC`, the GI50 is 3.54 µM in assay [1]; 3.43 µM in assay [2]; 3.3 µM in [3]; 3.56 µM in assay [4]; 2.7 µM in [5]; 2.21 µM in assay [6]. Further, the GI50 in assay [7] was 7.08 µM; in assay [8], 1.75 µM; in assay [9] it was 1.94 µM. Besides, the TGI in assay [1] is 12.8 µM; in [2], 11 µM; in [3], 24.9 µM; in assay [4], 13.9 µM; in assay [5], 12.4 µM; in [6], 6.77 µM. Also, the TGI in [7] was 21.6 µM; in assay [8], 4.39 µM; in assay [9], 4.31 µM.
For `O=C1NC2(CCCC2)/C(=N\O)C12CCCC2`, the TGI in [1], in assay [2], in [3], in assay [4], in assay [10] and in assay [5] was above 100 µM each time. Also, the TGI in assay [6], in [7] and in assay [9] was above 100 µM throughout.
`CC1(C(=O)NCCN(CCNC(=O)C2(C)CC3(C)CC(C)(C2)C(=O)NC3=O)CCNC(=O)C2(C)CC3(C)CC(C)(C2)C(=O)NC3=O)CC2(C)CC(C)(C1)C(=O)NC2=O` (stereo unspecified): the TGI in [1], in assay [2], in assay [3], in assay [4], in assay [6] and in assay [8] was above 100 µM each time. Also, the TGI in assay [9] was above 100 µM.
Regarding `C=CC[N+]1(CCO)CCN=C1CCCCCCCCCCCCC` (stereo unspecified), the GI50 was 1.72 µM in [2]; 1.38 µM in assay [10]; 1.6 µM in assay [5]; 1.67 µM in assay [6]; 1.82 µM in assay [9]. Further, the TGI in assay [2] was found to be 3.09 µM; in assay [10] it was 2.68 µM; in assay [5], 3.18 µM; in assay [6] it was 3.45 µM; in assay [9], 3.52 µM.
Regarding `O=C1c2ccccc2C(=O)c2c(NC(=O)C(Cl)CCl)cccc21` (stereo unspecified), the TGI in assay [1] was 29 µM; in assay [2] it was 23.6 µM; in [3] it was 0.395 µM; in assay [4], 8.26 µM; in assay [5], 47.2 µM; in assay [6], 23.3 µM. The TGI in assay [7] is 34.1 µM; in assay [8], 2.11 µM; in [9], 33.9 µM.
Take `O=C(c1ccccn1)c1nc(-c2ccc(Cl)c(Cl)c2)nc2ccc(Cl)cc12`: the TGI in assay [1], in assay [2], in assay [3], in assay [4], in assay [5] and in assay [6] was above 100 µM in each case. The TGI in [7], in [8] and in [9] was above 100 µM in each case.
Turning to `CCN1/C(=C/C=C/C=C/c2sc3ccccc3[n+]2CC)Sc2ccccc21`, the GI50 in [1] is 0.566 µM; in assay [2] it was 0.42 µM; in assay [3], 0.0652 µM; in assay [4], 0.378 µM; in assay [10] it was 0.296 µM; in assay [6], 0.261 µM. In addition, the GI50 in [7] was 0.639 µM; in [8] it was 0.149 µM; in assay [9], 0.512 µM. Further, the TGI worked out at 3.28 µM in [1]; 1.54 µM in [2]; 0.512 µM in [3]; 1.4 µM in assay [4]; 1.6 µM in assay [10]; 2.51 µM in [6]. The TGI was found to be 6.05 µM in assay [7], 2.21 µM in assay [8] and 1.88 µM in [9].
As for `Clc1ccccc1C1N2CCCCC2[C@@H]2c3[nH]c4ccccc4c3CCN12` (stereo partly specified), the TGI worked out at 45.8 µM in assay [1]; 59.3 µM in assay [2]; 44.2 µM in assay [3]; 22.1 µM in assay [5]; 44.4 µM in assay [6]; 52.7 µM in [7]. Further, the TGI in assay [8] amounted to 66.6 µM; in [9], 30.2 µM.
With `COc1cc([N+](=O)[O-])c(S(=O)(=O)O)cc1N`, the TGI in [1], in assay [2], in assay [3], in [4], in [10] and in [6] was above 100 µM each time. Moreover, the TGI in [7], in assay [8] and in assay [9] was above 100 µM throughout.
Take `C/C=C/C(=O)[C@@H](O)C(C)C`: the TGI in assay [1], in assay [3], in [4], in assay [5], in assay [6] and in assay [7] was above 100 µM each time. In addition, the TGI in [8] and in assay [9] was above 100 µM each time.
As for `CN(C)CCNC(=O)c1cccc2ccc(-c3cccnc3)nc12`, the TGI was 23.2 µM in [1]; 19.2 µM in assay [2]; above 100 µM in [3]; 98.4 µM in assay [4]; 15.1 µM in assay [10]; 16.8 µM in assay [5]. Further, the TGI turned out to be 36.9 µM in assay [6], 22.4 µM in [7] and 14.8 µM in assay [9].
